In ChEMBL document CHEMBL4152293, “Synthesis and biological evaluation of podophyllotoxin derivatives as selective antitumor agents” (Eur J Med Chem, 2018):
Calls of active or inactive are those of the source. The calls are words filed in the database; no cut-off is given here.

Assays:
L02 [1] = assay: Cytotoxicity against human L02 cells assessed as growth inhibition after 72 hrs by MTT assay; assay type: cell-based; settings: L02, 72 h
A549 [2] = assay: Cytotoxicity against human A549 cells assessed as growth inhibition after 72 hrs by MTT assay; assay type: functional, cell-based; settings: A549, 72 h
MCF7 [3] = assay: Cytotoxicity against human MCF7 cells assessed as growth inhibition after 72 hrs by MTT assay; assay type: functional, cell-based; settings: MCF7, 72 h
HepG2 [4] = assay: Cytotoxicity against human HepG2 cells assessed as growth inhibition after 72 hrs by MTT assay; assay type: functional, cell-based; settings: HepG2, 72 h
A549 [5] = assay: Induction of apoptosis in human A549 cells assessed as decrease in cell number at 10 to 30 nM after 72 hrs by DAPI staining-based fluorescence microscopic method; assay type: functional
L02 [6] = assay: Induction of apoptosis in human L02 cells assessed as decrease in cell number at 10 to 30 nM after 72 hrs by DAPI staining-based fluorescence microscopic method; settings: l02, 72 h, 0.03 µM
L02 [7] = assay: Induction of morphological changes in human L02 cells assessed as irregular shape at 10 to 30 nM after 72 hrs by DAPI staining-based fluorescence microscopic method; assay type: cell-based; settings: l02, 72 h, 0.03 µM
A549 [8] = assay: Induction of morphological changes in human A549 cells assessed as irregular shape at 10 to 30 nM after 72 hrs by DAPI staining-based fluorescence microscopic method; assay type: functional, cell-based
L02 [9] = assay: Induction of apoptosis in human L02 cells assessed as nuclear fragmentation at 10 to 30 nM after 72 hrs by DAPI staining-based fluorescence microscopic method; assay type: cell-based; settings: l02, 72 h, 0.03 µM
A549 [10] = assay: Induction of apoptosis in human A549 cells assessed as nuclear fragmentation at 10 to 30 nM after 72 hrs by DAPI staining-based fluorescence microscopic method; assay type: functional, cell-based
HepG2 [11] = assay: Potency index, ratio of VP-16 IC50 to test compound IC50 for human HepG2 cells; assay type: functional
HepG2 [12] = assay: Potency index, ratio of doxorubicin IC50 to test compound IC50 for human HepG2 cells; assay type: functional
[13] = Selectivity index, ratio of IC50 for human L02 cells to IC50 for human A549 cells; assay type: toxicity; settings: L02 cells versus A549 cells, read-out: Ratio IC50
MCF7 [14] = assay: Potency index, ratio of VP-16 IC50 to test compound IC50 for human MCF7 cells; assay type: functional
MCF7 [15] = assay: Potency index, ratio of doxorubicin IC50 to test compound IC50 for human MCF7 cells; assay type: functional
A549 [16] = assay: Potency index, ratio of VP-16 IC50 to test compound IC50 for human A549 cells; assay type: functional
A549 [17] = assay: Potency index, ratio of doxorubicin IC50 to test compound IC50 for human A549 cells; assay type: functional

Compound | IC50 (L02 [1]) [nM] | IC50 (A549 [2]) [nM] | IC50 (MCF7 [3]) [nM] | IC50 (HepG2 [4]) [nM] | also measured
COc1cccc2c1C(=O)c1c(O)c3c(c(O)c1C2=O)C[C@@](O)(C(=O)CO)C[C@@H]3O[C@H]1C[C@H](N)[C@H](O)[C@H](C)O1 [DOXORUBICIN] | 53.3 | 228 | – | – | –
COc1cc([C@@H]2c3cc4c(cc3[C@H](OC(=O)[C@H](C)N)[C@H]3COC(=O)[C@H]23)OCO4)cc(OC)c1OC | 10.8 | 13.6 | 18.5 | 17.8 | –
COc1cc([C@@H]2c3cc4c(cc3[C@H](OC(=O)[C@H](Cc3ccccc3)NC(=O)c3nc(C)c(C)nc3C)[C@H]3COC(=O)[C@H]23)OCO4)cc(OC)c1OC | 12 | 8.1 | 11.3 | 24.5 | –
COc1cc([C@@H]2c3cc4c(cc3[C@H](OC(=O)CN(C)C(=O)c3nc(C)c(C)nc3C)[C@H]3COC(=O)[C@H]23)OCO4)cc(OC)c1OC | 15.8 | 20.1 | 66.4 | 58.3 | –
COc1cc([C@@H]2c3cc4c(cc3[C@H](OC(=O)[C@H](C)NC(=O)OC(C)(C)C)[C@H]3COC(=O)[C@H]23)OCO4)cc(OC)c1OC | 110 | 17.3 | 107 | 81.5 | –
CNCC(=O)O[C@H]1c2cc3c(cc2[C@@H](c2cc(OC)c(OC)c(OC)c2)[C@H]2C(=O)OC[C@@H]21)OCO3 | 9.6 | 6.8 | 17.5 | 24.9 | Activity (A549 [5]): Active; Activity (L02 [6]): Toxic; Activity (L02 [7]): Toxic; Activity (A549 [8]): Active; Activity (L02 [9]): Toxic; Activity (A549 [10]): Active
COc1cc([C@@H]2c3cc4c(cc3[C@H](OC(=O)[C@@H]3CCCN3C(=O)OC(C)(C)C)[C@H]3COC(=O)[C@H]23)OCO4)cc(OC)c1OC | 396 | 148 | 277 | 246 | –
COc1cc([C@@H]2c3cc4c(cc3[C@H](OC(=O)CNC(=O)c3nc(C)c(C)nc3C)[C@H]3COC(=O)[C@H]23)OCO4)cc(OC)c1OC | 18.2 | 9.3 | 39.9 | 11.7 | Ratio IC50 (HepG2 [11]): 4200; Ratio IC50 (HepG2 [12]): 59
COc1cc([C@@H]2c3cc4c(cc3[C@H](OC(=O)[C@H](Cc3ccccc3)NC(=O)OC(C)(C)C)[C@H]3COC(=O)[C@H]23)OCO4)cc(OC)c1OC | 78.4 | 30.2 | 95.3 | 87.1 | –
COc1cc([C@@H]2c3cc4c(cc3[C@@H](O[C@@H]3O[C@@H]5CO[C@@H](C)O[C@H]5[C@H](O)[C@H]3O)[C@H]3COC(=O)[C@H]23)OCO4)cc(OC)c1O [ETOPOSIDE] | 3480 | 9470 | 4720 | > 50000 | selectivity ratio [13]: 0.5
COc1cc([C@@H]2c3cc4c(cc3[C@H](OC(=O)[C@@H]3CCCN3)[C@H]3COC(=O)[C@H]23)OCO4)cc(OC)c1OC | 6.2 | 2.8 | 7.6 | 12.8 | –
COc1cc([C@@H]2c3cc4c(cc3[C@H](OC(=O)[C@H](CC(C)C)NC(=O)OC(C)(C)C)[C@H]3COC(=O)[C@H]23)OCO4)cc(OC)c1OC | 180 | 130 | 110 | 106 | –
CC[C@H](C)[C@H](N)C(=O)O[C@H]1c2cc3c(cc2[C@@H](c2cc(OC)c(OC)c(OC)c2)[C@H]2C(=O)OC[C@@H]21)OCO3 | 11.1 | 19.2 | 17.3 | 22.5 | –
CC[C@H](C)[C@H](NC(=O)c1nc(C)c(C)nc1C)C(=O)O[C@H]1c2cc3c(cc2[C@@H](c2cc(OC)c(OC)c(OC)c2)[C@H]2C(=O)OC[C@@H]21)OCO3 | 420 | 119 | 988 | 348 | –
COc1cc([C@@H]2c3cc4c(cc3[C@H](OC(=O)[C@@H]3CCCN3C(=O)c3nc(C)c(C)nc3C)[C@H]3COC(=O)[C@H]23)OCO4)cc(OC)c1OC | 132 | 80.1 | 122 | 112 | –
COc1cc([C@@H]2c3cc4c(cc3[C@H](OC(=O)CN)[C@H]3COC(=O)[C@H]23)OCO4)cc(OC)c1OC | 14.5 | 12.9 | 7.2 | 17.5 | Ratio IC50 (MCF7 [14]): 650; Ratio IC50 (MCF7 [15]): 10
COc1cc([C@@H]2c3cc4c(cc3[C@H](OC(=O)c3nc(C)c(C)nc3C)[C@H]3COC(=O)[C@H]23)OCO4)cc(OC)c1OC | 115 | 76.9 | 63.5 | 57.8 | –
COc1cc([C@@H]2c3cc4c(cc3[C@H](OC(=O)[C@H](CC(C)C)NC(=O)c3nc(C)c(C)nc3C)[C@H]3COC(=O)[C@H]23)OCO4)cc(OC)c1OC | 140 | 62.4 | 127 | 89.1 | –
CC[C@H](C)[C@H](NC(=O)OC(C)(C)C)C(=O)O[C@H]1c2cc3c(cc2[C@@H](c2cc(OC)c(OC)c(OC)c2)[C@H]2C(=O)OC[C@@H]21)OCO3 | 1120 | 223 | 626 | 690 | –
COc1cc([C@@H]2c3cc4c(cc3[C@H](OC(=O)[C@@H](N)CC(C)C)[C@H]3COC(=O)[C@H]23)OCO4)cc(OC)c1OC | 21.6 | 14.7 | 8.6 | 27.1 | –
COc1cc([C@@H]2c3cc4c(cc3[C@H](OC(=O)[C@H](C)NC(=O)c3nc(C)c(C)nc3C)[C@H]3COC(=O)[C@H]23)OCO4)cc(OC)c1OC | 25.5 | 15.8 | 15.6 | 26.9 | –
COc1cc([C@@H]2c3cc4c(cc3[C@H](OC(=O)CNC(=O)OC(C)(C)C)[C@H]3COC(=O)[C@H]23)OCO4)cc(OC)c1OC | 7.3 | 1.6 | 11.3 | 26.6 | Ratio IC50 (A549 [16]): 5900; Ratio IC50 (A549 [17]): 140
COc1cc([C@@H]2c3cc4c(cc3[C@H](OC(=O)[C@@H](N)Cc3ccccc3)[C@H]3COC(=O)[C@H]23)OCO4)cc(OC)c1OC | 8.9 | 3.8 | 15.6 | 27.3 | –
